Measurements as given in patent US20210283211A1, “COMPOSITIONS AND METHODS OF ALLEVIATING RESISTANCE TO CHEMOTHERAPY” (CITY OF HOPE, priority 2019, published 2021).
“Also recorded” adds a separate entry of the source.

Tests used:
[1] = tested on: H2009 cells; assay: cells; format: cell-based; conditions: Homo sapiens
Protocol: (§1) Cell viability assay: Cell Counting Kit-8 (CCK-8) was purchased from Dojindo Molecular Technologies (Rockville, Md., USA). Cells were seeded on a 96-well plate and allowed to adhere in complete medium for 24 hours. Test compounds were added to 100 μl of medium at the indicated concentrations for 72 hours. Ten μl of the CCK-8 reagent were added to each well and absorbance at 450 nm was measured using a Tecan Spark 10M multimode microplate reader.
Then a sublethal dose was used to determine the effect of these compounds on ITGB4 and PXN expression and caspase activity (FIG. 9I). […] These eleven compounds were further screened in the cisplatin-resistant cell line H2009. […] Further, carfilzomib was tested in another cisplatin-resistant cell line H1993.

[2] = tested on: H2009 spheroids; assay: 3D spheroid assay (red fluorescence viability, caspase-3/7); format: cell-based, human; conditions: 300 nM, 72 hours
Protocol: 3D spheroid assay. 3D spheroid experiments were performed using cell lines stably transfected with NucLight Red Lentivirus (Essen Bioscience) to visualize red fluorescence as an indicator of cell viability. Cells were seeded on a 96-well ultra-low attachment plate and allowed to form spheroids overnight. Drug treatment was added as indicated along with Cytotox Green Reagent (Essen BioScience), used as a green fluorescence indicator of cell death due to loss of cell membrane integrity. To monitor cell proliferation and apoptosis over time, the plate was placed in the IncuCyte S3 Live-Cell Analysis System (Essen BioScience) and images were acquired every 2 hours. Data analysis was generated by the IncuCyte software using a red fluorescence mask to accurately measure intensity and area of red fluorescence, indicating spheroid viability and a green fluorescence mask, indicating cell death.
Confocal microscopy. […] Images were processed using ZEN software and analyzed using ImageJ (Schneider, C. A.; Rasband, W. S. & Eliceiri, K. W. (2012), “NIH Image to ImageJ: 25 years of image analysis”, Nature methods 9(7): 671-675, PMID 22930834).
To mimic conditions closer to in vivo, the effect of knocking down PXN or ITGB4 was discerned in spheroids (3D) formed from the cell lines used in 2D culture. […] The spheroid growth and survival were quantitated by monitoring dye intensity and area in real time. […]

[3] = tested on: H2009 cells; assay: Scratch wound healing assay; format: cell-based, human
Protocol: Scratch wound healing assay. Cells were seeded on a 96-well Image Lock (Essen BioScience, Ann Arbor, Mich., USA) plate to reach 90% confluence by the next day. After cell adherence, 96 uniform wounds were created simultaneously using the WoundMaker (Essen BioScience) tool. Cells were washed once with serum-free medium and replenished with complete medium. To monitor wound healing, the plate was placed in the IncuCyte S3 Live-Cell Analysis System (Essen BioScience) and images were acquired every hour. Data analysis was generated by the IncuCyte software using a set confluence mask to measure relative wound density over time.
To discern the effect of knocking down ITGB4 on cell migration, H1993 and H2009 cells were transfected with the control or ITGB4-specific siRNA in 6-well plates and 12 hours post transfection, the cells were trypsinized and reseeded at high density in a 96-well plate. […] While both cell lines transfected with the control siRNA achieved 100% confluency of the wound within 48 hours, H1993 and 2009 cells in which ITGB4 was knocked down reached ˜60% and ˜80% confluency, respectively; neither cell line reached 100% confluency even after 96 h (FIG. 3F). Next the rate of wound closure was estimated. The rate was determined by dividing initial wound width by the time taken to close the wound. […] Similarly, in the case of the H2009 cells, the wound width closure rate dropped from 22 μm/h to about 18 μm/h (FIG. 3G). […] Additionally, up regulation of expression of other integrin β forms in response to ITGB4 knockdown was checked and an increase in the expression of ITGB1, ITGB2, and ITGB3 at mRNA level was found (FIG. 3I). The effect of ITGB3 silencing in the ITGB4 knocked down cells was further tested but no significant difference in their proliferation was found (FIG. 3J).

[4] = tested on: H358 cells; assay: Cell-based rescreen of top virtual-screen hits, IC50 determination; conditions: Homo sapiens, NCI-H358, 0.1 μM to 10 μM, 72 hours
Protocol: as §1
A virtual screen of a library of 1440 FDA-approved drugs using binding pockets in the N-terminal domain of PXN (FIG. 9H) identified several putative hits. The top 40 hits were then rescreened employing a cell-based assay to determine their efficacy using H358 cells.

CC(C)C[C@H](NC(=O)[C@H](CCc1ccccc1)NC(=O)CN1CCOCC1)C(=O)N[C@@H](Cc1ccccc1)C(=O)N[C@@H](CC(C)C)C(=O)[C@@]1(C)CO1 [Carfilzomib]
cytotoxicity at 0.08 µM ([1]; NCI-H2009, 72 h, read-out: reduction in the cell viability): 80%
IC50 ([1]; NCI-H2009, H2009 cells, increasing dose, 72 hours): 418 nM
drop in red intensity of spheroid [2]: 2 fold
increase in caspase activity [2]: 2 fold
wound confluency ([3]; 200 nM, untreated >90%): 79%
cell migration / wound healing ([3]; sublethal dose (carfilzomib 50-200 nM)): significant inhibition of wound healing and reduction in wound closure rate; also recorded: dose-dependent inhibition of cell migration
IC50 [4]: 0.8 nM
